Measured values reported in PubChem BioAssay (NCI).
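Five concentrations, 48 hours, 96-well plates. At the GI50, growth is halved. TGI is the concentration that stops growth completely.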

Tests used:
Assay in all cases: inhibition of tumour cell growth, NCI panel, 48 h
DMS 273 small cell lung = test system: DMS 273 small cell lung
SW-620 colon = test system: SW-620 colon
SF-539 CNS = test system: SF-539 CNS
MOLT-4 leukemia = test system: MOLT-4 leukemia
HCC-2998 colon = test system: HCC-2998 colon
KM20L2 colon = test system: KM20L2 colon
XF 498 CNS = test system: XF 498 CNS
DMS 114 small cell lung = test system: DMS 114 small cell lung
HS 578T breast = test system: HS 578T breast
DU-145 prostate = test system: DU-145 prostate

Structure (SMILES)	TGI (DMS 273 small cell lung) [µM]	TGI (SW-620 colon) [µM]	TGI (SF-539 CNS) [µM]	TGI (MOLT-4 leukemia) [µM]	TGI (HCC-2998 colon) [µM]	TGI (KM20L2 colon) [µM]	TGI (XF 498 CNS) [µM]	TGI (DMS 114 small cell lung) [µM]	TGI (HS 578T breast) [µM]	TGI (DU-145 prostate) [µM]	GI50 (DMS 114 small cell lung) [µM]	GI50 (KM20L2 colon) [µM]	GI50 (SW-620 colon) [µM]	GI50 (HS 578T breast) [µM]	GI50 (SF-539 CNS) [µM]	GI50 (DU-145 prostate) [µM]	GI50 (MOLT-4 leukemia) [µM]	GI50 (HCC-2998 colon) [µM]	GI50 (XF 498 CNS) [µM]	GI50 (DMS 273 small cell lung) [µM]
COc1cc2c(c(OC)c1OC)-c1ccc(SC)c(=O)cc1[C@@H](NC(=O)c1ccc(Cl)cc1)CC2	> 100	41.3	< 0.01	> 100	< 0.01	< 0.01														
CC1CC[C@]2(C(=O)O)CCC3(C)C(=CCC4[C@@]5(C)CC[C@H](OS(=O)(=O)c6ccccc6)C(C)(C)C5CC[C@]43C)[C@@H]2[C@H]1C (some centres not stated)	> 100	> 100	> 100	> 100	> 100		> 100	> 100												
CCOC(=O)[C@H]1Nc2ccccc2C2c3ccccc3CC21 (some centres not stated)	> 100	> 100	> 100	> 100	> 100	> 100	> 100	> 100												
Cc1nc(-n2nc(-c3ccccc3)cc2-c2ccccc2)sc1C(/C=C/c1ccc([N+](=O)[O-])cc1)=N/NC(=O)c1ccncc1		> 100	41.5	43.4	26.6	> 100		58.5												
N#CC1C=Cc2ccccc2N1C(=O)Oc1ccccc1 (configuration not stated)		> 100	> 100	93.8	> 100				> 100	93.8										
COc1cnc2cc(C(=O)O)c3ccccc3c2c1		> 100	> 100	> 100	> 100				> 100	> 100										
O=c1cc(-c2ccccn2)[nH]c2ccc(Cl)cc12		> 100	> 100	> 100	> 100	> 100	> 100	49			13.9	40								
Cc1ccc(C(C)C)cc1NC(=O)Nc1ccc([N+](=O)[O-])cc1		10.7	7.89	4.63	5.44				5.18	12			2.89	1.66	2.57	2.49	2.13	2.09		
O=C(Nc1cccc(NC(=O)c2cc(=O)c3ccccc3o2)n1)c1cc(=O)c2ccccc2o1	57.8	> 100	> 100	> 100	> 100	> 100		92												
CN(C=O)/C=C/c1cc(O)ccc1O	> 54.3	37.9	> 65.4	29.4	> 100	> 62.4		> 100		> 100										
CN1CCc2c1nc(-c1ccc([N+](=O)[O-])cc1)c1c2N(C)CC1		> 100	> 100	> 100	> 100	> 100	> 100	> 100												
CC1COCC(C)N1C1=C(Cl)C(=O)c2ccccc2C1=O (configuration not stated)		3.24	28.1	7.5	31.1				50.5	22.9			1.74	6.38	14.3	10.7	2.77	17.2		
C=[CH][Sn]([CH]=C)([O]c1cccc2cccnc12)[O]c1cccc2cccnc12		3.44	9.27	11.1	8.85	4.99				23.2		2.26	1.13		2.85	7.29	1.42	4.44		
CC(=O)C1C(=O)N(C(C)C)C[C@@H]2CCC(=O)C[C@H]12 (some centres not stated)	> 100	> 100	> 100	> 100	> 100		> 100	> 100												
O=c1c2ccccc2oc2ccc(OCCCCCCN3CCCCCC3)cc12		11	3.4	6.29	11.6				36.7	19			3.11	7.5	1.76	5.89	2.38	2.97		
O=C(NCCCCCCCNC(=O)OCc1ccc2c(Cl)cc(Cl)c(O)c2n1)OCc1ccc2c(Cl)cc(Cl)c(O)c2n1		0.744	1.48	2	3.14				5.35	1.99			0.273	1.4	0.414	0.672	0.367	1.65		
N[C@@H]1CCCC[C@@H]1N.O=P([O-])([O-])CN(CP(=O)([O-])[O-])CP(=O)([O-])[O-].[Pt+2]	> 100	> 100	> 100	> 100	> 100	> 100	> 100					> 100	> 100		> 100		> 100	> 100	> 100	> 100
CCSC(SCC)=C1C(=O)N(c2ccccc2)N=C1C	32	20.3		23.4	27.6	30.5	22.7													
Nc1ccc2c(c1)c(N)nn2C(=O)Nc1ccc(Cc2ccccc2)cc1		18.7	22.1	24.3	14.8				43	24			4.48	17.3	8.7	10.9	4.48	4.17		
COc1cc([N+](=O)[O-])c2ncccc2c1[N+](=O)[O-]		3.44	13.6	> 100	17.8				29.4	15.8			1.82	3.87	3.61	4.39	4.92	4.82		
CSc1ccc(C(=O)C(=O)c2ccc(SC)s2)s1		> 10	> 10	7.78	> 10				> 10	> 10										
CCCCCCCCCCCCCc1nn[nH]n1		41.4	32.2		33.7	37.4		38.4												
COc1nc(NC2OC(COC(C)=O)C(OC(C)=O)C(OC(C)=O)C2OC(C)=O)c(-c2csc(N)n2)c(=O)n1C (configuration not stated)		> 100	> 100	> 100		> 100		> 100												
